Drawing on patent US10301280B2 (Plexxikon Inc., priority 2012, dated 2019), this text covers IC50 for 27 compounds.

The term IC50 denotes the concentration that gives 50% inhibition. Read a high IC50 as weaker potency.

In assay [1] the target is c-kit mutant D816V (Homo sapiens (Human), UniProt P10721, D816V/DEL694-753). As to the kind of experiment: c-Kit mutant D816V biochemical assay (AlphaScreen). The following applies: c-kit D816V biochemical inhibitory activity. How it is done: The c-kit mutant D816V (or kinase domain thereof) is an active kinase in AlphaScreen. IC50 values are determined with respect to inhibition of c-Kit mutant D816V kinase activity, where inhibition of phosphorylation of a peptide substrate is measured as a function of compound concentration. Compounds to be tested were dissolved in DMSO to a concentration of 20 mM. These were diluted 30 μl into 120 μl of DMSO (4 mM) and 1 μl was added to an assay plate. These were then serially diluted 1:3 (50 μl to 100 μl DMSO) for a total of 8 points. Plates were prepared such that each kinase reaction is 20 μl in 1× kinase buffer (25 mM HEPES, pH 7.2, 8 mM MgCl2, 2 mM MnCl2, 50 mM NaCl, 0.01% Brij, 1 mM DTT, 0.01% BSA), 5% DMSO and 10 μM ATP. Substrate was 30 nM biotin-(E4Y)10 (EMD Millipore, Cat#12-440). C-kit mutant D816V kinase was at 0.75 ng per sample. After incubation of the kinase reaction for 30 minutes at room temperature, 5 μl of donor beads (Streptavidin coated beads (Perkin Elmer Life Science) final concentration 7.5 μg/ml) in stop buffer (25 mM Hepes pH 7.5, 100 mM EDTA, 0.01% BSA) was added, the sample was mixed and incubated for 20 minutes at room temperature before adding 5 μl of acceptor beads (PY20 coated beads (Perkin Elmer Life Science) final concentration 7.5 ug/ml) in stop buffer. The samples were incubated for 60 minutes at room temperature and the signal per well was read on EnVision reader. Phosphorylated substrate results in binding of the PY20 antibody and association of the donor and acceptor beads such that signal correlates with kinase activity. The signal vs. compound concentration was used to determine the IC50.
Sequence of c-kit mutant D816V (P10721 other isoform, or with tags, fused parts or gaps D816V/del 694-753): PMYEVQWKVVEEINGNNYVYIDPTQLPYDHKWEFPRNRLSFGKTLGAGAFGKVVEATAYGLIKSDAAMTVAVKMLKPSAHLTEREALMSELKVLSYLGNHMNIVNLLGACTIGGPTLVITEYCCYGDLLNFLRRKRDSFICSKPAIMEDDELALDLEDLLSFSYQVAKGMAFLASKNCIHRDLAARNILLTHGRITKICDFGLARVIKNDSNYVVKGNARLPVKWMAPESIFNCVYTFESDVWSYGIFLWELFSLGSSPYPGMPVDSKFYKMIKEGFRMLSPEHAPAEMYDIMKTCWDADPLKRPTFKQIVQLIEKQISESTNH
Recombinant c-kit mutant D816V (residues 551-934, kinase insertion domain residues 694-753 deleted) with a 6x-histidine N-terminal tag was expressed in E. coli Arctic Express (DE3) RIL (Stratagene). Cells were grown in Terrific Broth (TB) media to an OD600 of 0.6 at 37° C. at which temperature was reduced to 10° C., protein was induced with 1.0 mM IPTG for 18 hours and harvested by centrifugation at 8000×g for 20 minutes. Cells were re-suspended in 0.1M KPO4 pH 8.0, 250 mM NaCl, 10% Glycerol, 0.75% NP-40, 25 mM Imidazole, 5 mM BME with 0.2 mg/ml Lysosyme, 2.0 mM PMSF, 25 μg/ml DNAse I, incubated in ice for 30 minutes and lyzed with a cell disruptor (MicroFluidics). The lysate was clarified by centrifugation at 20,000×g for 2 hours. The protein was captured with Talon resin (Clontech). Contaminating proteins were washed off with 25 mM Tris-HCl pH 8.3, 250 mM NaCl, 15% Glycerol, 1% Triton X-100, and protein eluted using 100 mM EDTA. The protein was further purified using Gel Filtration column 26/600 Superdex 200 (GE) in 50 mM Tris-HCl, pH 8.0, 250 mM NaCl, 15% Glycerol, 5 mM BME. The protein was aliquoted and flash-frozen in liquid Nitrogen.

Assay [2] deals with BaF3-FL KIT D816V or BaF3-FL KIT V560G/D816V cell line. As to the kind of experiment: Cell-based assays of c-Kit mutant kinase activity (cell growth, ATPlite). As to conditions: at least one of the c-kit cell assays of Example 26. A digest of the protocol:
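IC50 derived from ATP-content luminescence (ATPlite) after three-day compound exposure at 37° C., 5% CO2. Cells: BaF3 rendered growth-dependent on full-length human KIT D816V or V560G/D816V, 1×10^4 per well, RPMI plus 10% FBS; 8 points, 1:3 steps, maximum 10 μM final, 0.2% DMSO.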
(In general: ATP-based viability assays read luminescence as a measure of living cells.)

As for `NC(=O)c1cccc(NC(=O)c2cnc3[nH]c(-c4ccccc4)cc3c2)c1` [P-2003, N-(3-carbamoylphenyl)-2-phenyl-1H-pyrrolo[2,3-b]pyridine-5-carboxamide], in assay [1], the IC50 was in the range of 10 to 200 µM.

In turn, `O=C(Nc1cnc2[nH]c(-c3ccccc3)cc2c1)c1cc(C2CC2)n[nH]1` [P-2009, 3-cyclopropyl-N-(2-phenyl-1H-pyrrolo[2,3-b]pyridin-5-yl)-1H-pyrazole-5-carboxamide] had an IC50 in assay [1] of 10 to 200 µM.

`O=C(Nc1cnc2[nH]c(-c3ccccc3)cc2c1)c1ccncn1` [P-2011, N-(2-phenyl-1H-pyrrolo[2,3-b]pyridin-5-yl)pyrimidine-4-carboxamide]: the IC50 in assay [1] was 10 to 200 µM.

As to `Cc1onc(C(=O)Nc2cnc3[nH]c(-c4ccccc4)cc3c2)c1C` [P-2017, 4,5-dimethyl-N-(2-phenyl-1H-pyrrolo[2,3-b]pyridin-5-yl)isoxazole-3-carboxamide], in assay [1], the IC50 lay in the range of 10 to 200 µM.

In the case of `N#CCc1cccc(C(=O)Nc2cnc3[nH]c(-c4ccc(F)cc4)cc3c2)c1` [P-2021, 3-(cyanomethyl)-N-[2-(4-fluorophenyl)-1H-pyrrolo[2,3-b]pyridin-5-yl]benzamide], the IC50 in assay [1] fell in the range of 10 to 200 µM.

As for `N#Cc1cccc(C(=O)Nc2cnc3[nH]c(-c4ccc(F)cc4)cc3c2)c1` [P-2025, 3-cyano-N-[2-(4-fluorophenyl)-1H-pyrrolo[2,3-b]pyridin-5-yl]benzamide], the half-maximal inhibitory concentration (IC50) in assay [1] lay in the range of 10 to 200 µM.

For the compound `Cc1n[nH]c(C(=O)Nc2cnc3[nH]nc(-c4ccc(F)cc4)c3c2)c1C` [P-2041, N-(3-(4-fluorophenyl)-1H-pyrazolo[3,4-b]pyridin-5-yl)-3,4-dimethyl-1H-pyrazole-5-carboxamide], the IC50 in assay [1] was 0.0001 to 1 µM; in assay [2], under 10 µM.

Take `O=C(Nc1cnc2[nH]c(-c3ccc(F)cc3)cc2c1)c1n[nH]c2c1CCC2` [P-2056, N-[2-(4-fluorophenyl)-1H-pyrrolo[2,3-b]pyridin-5-yl]-1,4,5,6-tetrahydrocyclopenta[c]pyrazole-3-carboxamide]: the 50% inhibitory concentration (IC50) in assay [1] was 0.0001 to 1 µM; in assay [2] it was under 10 µM.

For the compound `Cc1n[nH]c(C(=O)Nc2cnc3[nH]c(C#CCF)cc3c2)c1C` [P-2063, N-[2-(3-fluoroprop-1-ynyl)-1H-pyrrolo[2,3-b]pyridin-5-yl]-3,4-dimethyl-1H-pyrazole-5-carboxamide], the values for the IC50 in assay [1] and in assay [2] were 0.0001 to 1 µM and under 10 µM, respectively.

On to `Cc1n[nH]c(C(=O)Nc2cnc3[nH]c(-c4cccc(OCCN5CCOCC5)c4)cc3c2)c1C` [P-2066, 3,4-dimethyl-N-[2-[3-(2-morpholinoethoxy)phenyl]-1H-pyrrolo[2,3-b]pyridin-5-yl]-1H-pyrazole-5-carboxamide], for which the half-maximal inhibitory concentration (IC50) in assay [1] was 0.0001 to 1 µM; in assay [2], under 10 µM.

On to `Cc1cc(C(=O)Nc2cnc3[nH]c(C#CCF)cc3c2)[nH]n1` [P-2068, N-[2-(3-fluoroprop-1-ynyl)-1H-pyrrolo[2,3-b]pyridin-5-yl]-3-methyl-1H-pyrazole-5-carboxamide], for which the concentration for half-maximal inhibition (IC50) is 1 to 10 µM in assay [1] and under 10 µM in assay [2].

`Cc1[nH]nc(NC(=O)c2cnc3[nH]c(-c4ccccc4)cc3c2)c1C` [P-2071] registered a 50% inhibitory concentration (IC50) in assay [1] of 10 to 200 µM.

Consider `Cc1[nH]nc(C(=O)Nc2cnc3cc(-c4ccc(F)cc4)nn3c2)c1C` [P-2072, N-[2-(4-fluorophenyl)pyrazolo[1,5-a]pyrimidin-6-yl]-4,5-dimethyl-1H-pyrazole-3-carboxamide], for which the values for the IC50 in assay [1] and in assay [2] were 1 to 10 µM and under 10 µM, respectively.

On to `COc1ccc(-c2cc3cc(NC(=O)c4[nH]nc(C)c4C)cnc3[nH]2)c(Cl)c1` [P-2075, N-[2-(2-chloro-4-methoxy-phenyl)-1H-pyrrolo[2,3-b]pyridin-5-yl]-3,4-dimethyl-1H-pyrazole-5-carboxamide], for which the figures for the 50% inhibitory concentration (IC50) in assay [1] and in assay [2] were 0.0001 to 1 µM and under 10 µM, respectively.

With `COc1ccc(-c2cc3cc(NC(=O)c4[nH]nc(C)c4C)cnc3[nH]2)c(F)c1` [P-2076, N-[2-(2-fluoro-4-methoxy-phenyl)-1H-pyrrolo[2,3-b]pyridin-5-yl]-3,4-dimethyl-1H-pyrazole-5-carboxamide], the half-maximal inhibitory concentration (IC50) in assay [1] is 0.0001 to 1 µM; in assay [2], under 10 µM.

For `COc1ccc(Cl)c(-c2cc3cc(NC(=O)c4[nH]nc(C)c4C)cnc3[nH]2)c1` [P-2077, N-[2-(2-chloro-5-methoxy-phenyl)-1H-pyrrolo[2,3-b]pyridin-5-yl]-3,4-dimethyl-1H-pyrazole-5-carboxamide], the half-inhibitory concentration (IC50) was 1 to 10 µM in assay [1] and under 10 µM in assay [2].

Regarding `Cc1n[nH]c(C(=O)Nc2cnc3[nH]c(-c4cc(F)cc(N5CCOCC5)c4)cc3c2)c1C` [P-2078, N-[2-(3-fluoro-5-morpholino-phenyl)-1H-pyrrolo[2,3-b]pyridin-5-yl]-3,4-dimethyl-1H-pyrazole-5-carboxamide], the figures for the half-inhibitory concentration (IC50) in assay [1] and in assay [2] were 0.0001 to 1 µM and under 10 µM, respectively.

In the case of `Cc1[nH]nc(C(=O)Nc2cnc3[nH]c(-c4cccc5c4OC(F)(F)O5)cc3c2)c1C` [P-2267, N-(2-(2,2-difluorobenzo[d][1,3]dioxol-4-yl)-1H-pyrrolo[2,3-b]pyridin-5-yl)-4,5-dimethyl-1H-pyrazole-3-carboxamide], the half-maximal inhibitory concentration (IC50) in assay [2] was under 10 µM.

Take `Cn1ncc2c(C(=O)Nc3cnc4[nH]c(-c5ccccc5)cc4c3)cccc21` [P-2298, 1-methyl-N-(2-phenyl-1H-pyrrolo[2,3-b]pyridin-5-yl)indazole-4-carboxamide]: the IC50 in assay [2] was under 10 µM.

`O=C(Nc1cnc2[nH]c(-c3ccccc3)cc2c1)c1cccc2[nH]ccc12` [P-2299, N-(2-phenyl-1H-pyrrolo[2,3-b]pyridin-5-yl)-1H-indole-4-carboxamide] yielded an IC50 in assay [2] of under 10 µM.

For the compound `O=C(Nc1cnc2[nH]c(-c3ccccc3)cc2c1)c1cccc2[nH]cnc12` [P-2300, N-(2-phenyl-1H-pyrrolo[2,3-b]pyridin-5-yl)-1H-benzimidazole-4-carboxamide], in assay [2], the IC50 is under 10 µM.

In assay [2], `Cc1cc2cc(NC(=O)c3[nH]nc(C)c3C)cnc2[nH]1` [P-2302, 3,4-dimethyl-N-(2-methyl-1H-pyrrolo[2,3-b]pyridin-5-yl)-1H-pyrazole-5-carboxamide] showed a half-inhibitory concentration (IC50) of under 10 µM.

Compound `O=C(O)c1ccc(C(=O)Nc2cnc3[nH]c(-c4ccccc4)cc3c2)cc1` [P-2303, 4-[(2-phenyl-1H-pyrrolo[2,3-b]pyridin-5-yl)carbamoyl]benzoic acid] gave an IC50 in assay [2] of under 10 µM.

As to `Cc1n[nH]c(C(=O)N(C)c2cnc3[nH]c(-c4ccccc4)cc3c2)c1C` [P-2304, N,3,4-trimethyl-N-(2-phenyl-1H-pyrrolo[2,3-b]pyridin-5-yl)-1H-pyrazole-5-carboxamide], the half-inhibitory concentration (IC50) in assay [2] was under 10 µM.

For `Cc1n[nH]c(C(=O)Nc2cnc3[nH]c(-c4cccc5c4OCCO5)cc3c2)c1C` [P-2305, N-[2-(2,3-dihydro-1,4-benzodioxin-5-yl)-1H-pyrrolo[2,3-b]pyridin-5-yl]-3,4-dimethyl-1H-pyrazole-5-carboxamide], the half-inhibitory concentration (IC50) in assay [2] was under 10 µM.

Take `Cc1n[nH]c(C(=O)Nc2cnc3[nH]c(-c4cnn(C5CCN(C(=O)OC(C)(C)C)CC5)c4)cc3c2)c1C` [P-2306, tert-butyl 4-[4-[5-[(3,4-dimethyl-1H-pyrazole-5-carbonyl)amino]-1H-pyrrolo[2,3-b]pyridin-2-yl]pyrazol-1-yl]piperidine-1-carboxylate]: the IC50 in assay [2] was under 10 µM.

Consider `Cc1n[nH]c(C(=O)Nc2cnc3[nH]c(C4=CCCCC4)cc3c2)c1C` [P-2307, N-[2-(cyclohexen-1-yl)-1H-pyrrolo[2,3-b]pyridin-5-yl]-3,4-dimethyl-1H-pyrazole-5-carboxamide], for which the 50% inhibitory concentration (IC50) in assay [2] is under 10 µM.
